Measured values taken from ChEMBL document CHEMBL1139396, “Novel N9-arenethenyl purines as potent dual Src/Abl tyrosine kinase inhibitors” (Bioorg Med Chem Lett, 2008).
pIC50: −log10 of the molar value.

Columns and labels:
[1] = Cytotoxicity against mouse BA/F3 cells transfected with wild-type Bcr-Abl; settings: BaF3
K562 = test: Cytotoxicity against human K562 cells transfected with wild-type Bcr-Abl
[2] = target: Proto-oncogene tyrosine-protein kinase Src (Homo sapiens, UniProt P12931); test: Inhibition of human Src kinase by TR-FRET assay
[3] = target: Tyrosine-protein kinase ABL1 (Homo sapiens, UniProt P00519)
[4] = Oral bioavailability in rat at 5 mg/kg; format: ADME, organism-based; settings: in vivo
[5] = Half life in rat at 5 mg/kg, po; format: ADME, organism-based; parameters: dose 5 mg/kg, route oral; settings: in vivo
[6] = Volume of distribution at steady state in rat at 5 mg/kg, iv; format: ADME, organism-based; parameters: dose 5 mg/kg, route intravenous; settings: in vivo, read-out: Vdss
[7] = Cmax in rat at 5 mg/kg, po; format: ADME, organism-based; parameters: dose 5 mg/kg, route oral; settings: in vivo
[8] = Cmax in rat at 5 mg/kg, iv; format: ADME, organism-based; parameters: dose 5 mg/kg, route intravenous; settings: in vivo
[9] = Half life in rat at 5 mg/kg, iv; format: ADME, organism-based; parameters: dose 5 mg/kg, route intravenous; settings: in vivo
[10] = Inhibition of Abl […] mutant
[11] = target: RAF proto-oncogene serine/threonine-protein kinase (Homo sapiens, UniProt P04049); test: Inhibition of c-Raf
[12] = target: Ephrin type-A receptor 7 (Homo sapiens) (UniProt Q15375); test: Inhibition of EphA7
Insulin receptor = Insulin receptor (Homo sapiens, UniProt P06213); test: Inhibition of InsR
[13] = target: Platelet-derived growth factor receptor alpha (Homo sapiens, UniProt P16234); test: Inhibition of PDGFRalpha
[14] = target: Mast/stem cell growth factor receptor Kit (Homo sapiens, UniProt P10721); test: Inhibition of Kit
[15] = Inhibition of Aurora kinase
[16] = target: Cyclin-dependent kinase 2 (Homo sapiens, UniProt P24941); test: Inhibition of CDK2/CyclinA
Ephrin type-B receptor 4 = target: T1, Ephrin type-B receptor 4 (Homo sapiens, UniProt P54760); test: Inhibition of EphB4
T1 sequence (P54760 whole entry): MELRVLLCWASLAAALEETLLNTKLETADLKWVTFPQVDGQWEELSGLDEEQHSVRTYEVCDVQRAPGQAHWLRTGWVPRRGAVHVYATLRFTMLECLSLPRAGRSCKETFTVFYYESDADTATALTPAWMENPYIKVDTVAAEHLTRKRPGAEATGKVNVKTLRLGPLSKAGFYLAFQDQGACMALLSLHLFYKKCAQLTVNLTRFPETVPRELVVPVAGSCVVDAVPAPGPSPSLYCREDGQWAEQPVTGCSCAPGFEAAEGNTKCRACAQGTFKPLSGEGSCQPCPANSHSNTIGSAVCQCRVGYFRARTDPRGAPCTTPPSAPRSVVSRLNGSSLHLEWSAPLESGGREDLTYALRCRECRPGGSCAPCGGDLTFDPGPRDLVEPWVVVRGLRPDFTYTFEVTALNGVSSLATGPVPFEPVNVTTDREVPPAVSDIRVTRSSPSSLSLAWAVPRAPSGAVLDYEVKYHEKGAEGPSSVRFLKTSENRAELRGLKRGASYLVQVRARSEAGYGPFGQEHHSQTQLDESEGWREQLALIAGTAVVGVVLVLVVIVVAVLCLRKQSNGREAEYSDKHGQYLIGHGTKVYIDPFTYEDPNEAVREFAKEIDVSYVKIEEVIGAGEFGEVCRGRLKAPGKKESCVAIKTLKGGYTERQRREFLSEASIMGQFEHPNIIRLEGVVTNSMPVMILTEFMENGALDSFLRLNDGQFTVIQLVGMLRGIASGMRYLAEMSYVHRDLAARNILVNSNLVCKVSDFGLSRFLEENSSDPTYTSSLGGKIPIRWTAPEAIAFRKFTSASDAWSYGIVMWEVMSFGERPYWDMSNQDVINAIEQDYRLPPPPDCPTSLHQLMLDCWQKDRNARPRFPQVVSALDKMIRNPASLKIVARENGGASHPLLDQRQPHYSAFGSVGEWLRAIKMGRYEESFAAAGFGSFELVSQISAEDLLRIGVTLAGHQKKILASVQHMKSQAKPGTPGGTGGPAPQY

[17] = target: Vascular endothelial growth factor receptor 3 (Homo sapiens, UniProt P35916); test: Inhibition of Flt4
[18] = target: Vascular endothelial growth factor receptor 1 (Homo sapiens, UniProt P17948); test: Inhibition of Flt1
Ephrin type-B receptor 1 = target: T2, Ephrin type-B receptor 1 (Homo sapiens, UniProt P54762); test: Inhibition of EphB1
T2 sequence (P54762 whole entry): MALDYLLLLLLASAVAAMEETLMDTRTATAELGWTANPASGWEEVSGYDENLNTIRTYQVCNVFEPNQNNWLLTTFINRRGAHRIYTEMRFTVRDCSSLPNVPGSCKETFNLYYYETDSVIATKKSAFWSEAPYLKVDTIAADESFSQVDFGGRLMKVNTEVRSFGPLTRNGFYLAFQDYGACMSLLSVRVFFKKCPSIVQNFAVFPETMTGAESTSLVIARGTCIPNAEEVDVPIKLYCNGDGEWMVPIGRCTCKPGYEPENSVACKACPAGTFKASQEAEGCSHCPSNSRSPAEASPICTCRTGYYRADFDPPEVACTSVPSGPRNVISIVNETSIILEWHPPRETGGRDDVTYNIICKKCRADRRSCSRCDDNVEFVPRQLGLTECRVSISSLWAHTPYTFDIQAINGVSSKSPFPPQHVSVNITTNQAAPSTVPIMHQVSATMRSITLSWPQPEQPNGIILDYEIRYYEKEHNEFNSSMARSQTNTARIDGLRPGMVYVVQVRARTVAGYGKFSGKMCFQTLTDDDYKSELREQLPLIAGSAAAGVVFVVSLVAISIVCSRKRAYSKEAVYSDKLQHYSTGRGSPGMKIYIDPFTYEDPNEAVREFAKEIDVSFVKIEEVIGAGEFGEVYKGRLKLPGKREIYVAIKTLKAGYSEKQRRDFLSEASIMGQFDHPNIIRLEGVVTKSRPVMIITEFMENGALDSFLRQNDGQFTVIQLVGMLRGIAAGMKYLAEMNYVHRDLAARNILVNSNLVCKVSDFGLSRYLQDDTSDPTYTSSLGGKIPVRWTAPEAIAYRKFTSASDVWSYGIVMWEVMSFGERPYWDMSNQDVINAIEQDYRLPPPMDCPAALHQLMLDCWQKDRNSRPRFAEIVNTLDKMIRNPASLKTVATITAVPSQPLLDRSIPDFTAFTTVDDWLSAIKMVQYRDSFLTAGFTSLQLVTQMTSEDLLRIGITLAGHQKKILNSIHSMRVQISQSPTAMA

[19] = target: Macrophage colony-stimulating factor 1 receptor (Homo sapiens, UniProt P07333)

Chain of Proto-oncogene tyrosine-protein kinase Src (P12931 2-536 limits assumed): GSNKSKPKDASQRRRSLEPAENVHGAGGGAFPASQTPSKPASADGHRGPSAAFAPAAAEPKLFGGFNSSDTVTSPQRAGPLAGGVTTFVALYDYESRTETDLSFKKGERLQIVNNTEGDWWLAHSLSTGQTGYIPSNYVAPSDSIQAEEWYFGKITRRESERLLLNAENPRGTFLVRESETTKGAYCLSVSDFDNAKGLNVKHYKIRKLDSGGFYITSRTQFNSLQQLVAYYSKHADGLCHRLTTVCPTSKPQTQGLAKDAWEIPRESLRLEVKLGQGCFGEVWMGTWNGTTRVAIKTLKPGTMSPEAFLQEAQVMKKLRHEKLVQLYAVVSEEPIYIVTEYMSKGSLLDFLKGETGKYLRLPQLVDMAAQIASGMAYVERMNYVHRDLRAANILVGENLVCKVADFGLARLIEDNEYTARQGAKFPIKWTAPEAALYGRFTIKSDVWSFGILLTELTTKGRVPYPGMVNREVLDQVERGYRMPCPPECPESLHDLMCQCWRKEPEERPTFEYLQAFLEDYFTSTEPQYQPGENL
Chain of Tyrosine-protein kinase ABL1 (P00519 whole entry): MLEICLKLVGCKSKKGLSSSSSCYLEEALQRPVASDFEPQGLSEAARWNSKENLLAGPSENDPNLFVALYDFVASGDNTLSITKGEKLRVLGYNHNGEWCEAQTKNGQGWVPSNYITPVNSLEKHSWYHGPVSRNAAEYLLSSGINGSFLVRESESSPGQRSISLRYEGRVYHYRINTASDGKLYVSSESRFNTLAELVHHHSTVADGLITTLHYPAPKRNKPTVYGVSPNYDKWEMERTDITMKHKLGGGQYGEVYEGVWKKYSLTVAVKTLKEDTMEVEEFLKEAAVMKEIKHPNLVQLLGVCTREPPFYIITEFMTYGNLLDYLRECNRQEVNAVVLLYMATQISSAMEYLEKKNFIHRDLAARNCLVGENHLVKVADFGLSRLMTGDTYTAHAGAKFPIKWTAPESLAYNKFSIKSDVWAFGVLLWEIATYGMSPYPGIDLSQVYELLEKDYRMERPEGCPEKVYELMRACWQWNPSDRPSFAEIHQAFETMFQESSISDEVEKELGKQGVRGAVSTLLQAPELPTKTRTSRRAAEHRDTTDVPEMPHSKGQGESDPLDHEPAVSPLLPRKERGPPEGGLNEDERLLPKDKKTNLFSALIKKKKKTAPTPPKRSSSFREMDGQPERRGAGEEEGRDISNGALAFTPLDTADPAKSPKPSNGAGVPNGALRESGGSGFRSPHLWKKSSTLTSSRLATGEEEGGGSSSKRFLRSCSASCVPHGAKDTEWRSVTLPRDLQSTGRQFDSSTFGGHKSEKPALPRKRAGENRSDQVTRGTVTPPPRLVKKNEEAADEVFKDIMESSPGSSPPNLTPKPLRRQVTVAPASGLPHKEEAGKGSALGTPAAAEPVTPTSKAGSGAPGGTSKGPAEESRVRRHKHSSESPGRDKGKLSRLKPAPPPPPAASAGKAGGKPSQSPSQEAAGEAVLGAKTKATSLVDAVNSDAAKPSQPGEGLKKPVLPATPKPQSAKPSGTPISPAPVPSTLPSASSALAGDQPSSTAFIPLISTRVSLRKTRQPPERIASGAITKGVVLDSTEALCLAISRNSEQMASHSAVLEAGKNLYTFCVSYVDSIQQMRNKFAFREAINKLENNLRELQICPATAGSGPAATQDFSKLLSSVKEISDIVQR
Chain of Insulin receptor (P06213 28-758 limits assumed): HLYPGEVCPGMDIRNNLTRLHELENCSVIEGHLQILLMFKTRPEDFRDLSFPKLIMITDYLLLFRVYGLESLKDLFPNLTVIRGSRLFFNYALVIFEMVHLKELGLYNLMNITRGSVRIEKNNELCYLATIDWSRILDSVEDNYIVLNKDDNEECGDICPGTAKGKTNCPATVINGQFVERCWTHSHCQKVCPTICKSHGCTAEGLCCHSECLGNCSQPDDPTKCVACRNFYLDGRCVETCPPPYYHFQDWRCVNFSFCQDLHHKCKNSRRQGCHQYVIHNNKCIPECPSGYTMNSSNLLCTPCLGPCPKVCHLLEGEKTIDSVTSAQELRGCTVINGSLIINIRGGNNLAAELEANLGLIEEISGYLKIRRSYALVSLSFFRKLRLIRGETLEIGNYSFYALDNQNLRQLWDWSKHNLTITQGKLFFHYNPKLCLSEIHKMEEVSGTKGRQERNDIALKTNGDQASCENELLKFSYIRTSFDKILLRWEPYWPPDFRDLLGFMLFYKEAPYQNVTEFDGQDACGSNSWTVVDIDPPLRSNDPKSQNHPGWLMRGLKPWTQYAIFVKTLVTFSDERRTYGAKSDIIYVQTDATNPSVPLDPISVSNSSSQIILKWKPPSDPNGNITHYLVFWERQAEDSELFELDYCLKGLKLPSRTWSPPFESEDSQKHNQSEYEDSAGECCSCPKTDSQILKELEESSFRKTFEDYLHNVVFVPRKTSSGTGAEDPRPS
Chain of Insulin receptor (P06213 763-1382 limits assumed): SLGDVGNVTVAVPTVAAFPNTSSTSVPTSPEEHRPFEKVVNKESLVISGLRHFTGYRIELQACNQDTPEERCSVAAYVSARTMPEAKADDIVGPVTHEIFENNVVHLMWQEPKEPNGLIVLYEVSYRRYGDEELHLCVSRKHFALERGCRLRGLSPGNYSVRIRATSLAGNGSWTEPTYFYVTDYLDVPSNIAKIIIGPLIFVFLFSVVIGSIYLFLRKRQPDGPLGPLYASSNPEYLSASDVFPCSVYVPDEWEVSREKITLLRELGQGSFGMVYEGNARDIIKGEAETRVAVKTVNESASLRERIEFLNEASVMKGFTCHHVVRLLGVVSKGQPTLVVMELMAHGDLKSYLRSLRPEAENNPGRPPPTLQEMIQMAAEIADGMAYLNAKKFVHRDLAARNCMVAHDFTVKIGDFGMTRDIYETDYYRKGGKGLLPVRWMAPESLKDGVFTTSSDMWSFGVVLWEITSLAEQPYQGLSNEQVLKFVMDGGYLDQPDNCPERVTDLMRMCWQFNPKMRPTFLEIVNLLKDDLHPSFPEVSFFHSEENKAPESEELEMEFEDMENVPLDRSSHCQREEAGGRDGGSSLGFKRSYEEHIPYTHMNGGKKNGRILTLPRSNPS
Chain of Mast/stem cell growth factor receptor Kit (P10721 whole entry): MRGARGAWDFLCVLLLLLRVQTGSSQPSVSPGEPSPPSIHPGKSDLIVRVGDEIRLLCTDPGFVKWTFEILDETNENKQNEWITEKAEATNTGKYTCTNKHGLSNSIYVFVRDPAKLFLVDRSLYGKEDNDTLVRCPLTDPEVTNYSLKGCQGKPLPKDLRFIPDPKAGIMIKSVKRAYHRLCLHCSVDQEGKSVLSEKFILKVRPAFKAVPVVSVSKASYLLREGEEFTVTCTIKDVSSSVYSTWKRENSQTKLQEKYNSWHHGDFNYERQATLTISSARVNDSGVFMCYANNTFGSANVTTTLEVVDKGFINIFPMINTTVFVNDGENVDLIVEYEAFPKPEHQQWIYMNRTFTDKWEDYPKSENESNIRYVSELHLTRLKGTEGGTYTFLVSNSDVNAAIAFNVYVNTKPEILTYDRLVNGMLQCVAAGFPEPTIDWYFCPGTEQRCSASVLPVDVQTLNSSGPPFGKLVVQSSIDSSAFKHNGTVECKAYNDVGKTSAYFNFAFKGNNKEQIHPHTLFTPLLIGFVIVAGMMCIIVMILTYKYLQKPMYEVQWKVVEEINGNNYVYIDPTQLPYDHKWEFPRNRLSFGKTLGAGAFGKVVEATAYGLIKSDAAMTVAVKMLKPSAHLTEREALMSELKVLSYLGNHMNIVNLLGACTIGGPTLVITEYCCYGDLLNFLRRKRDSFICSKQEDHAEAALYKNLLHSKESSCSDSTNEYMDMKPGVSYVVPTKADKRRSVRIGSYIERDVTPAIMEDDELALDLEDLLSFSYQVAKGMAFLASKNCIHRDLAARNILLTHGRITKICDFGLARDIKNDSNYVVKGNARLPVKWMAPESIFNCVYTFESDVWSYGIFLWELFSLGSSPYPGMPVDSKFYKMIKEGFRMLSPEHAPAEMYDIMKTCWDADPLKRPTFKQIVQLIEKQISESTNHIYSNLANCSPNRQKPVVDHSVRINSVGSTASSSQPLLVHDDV
Chain of RAF proto-oncogene serine/threonine-protein kinase (P04049 whole entry): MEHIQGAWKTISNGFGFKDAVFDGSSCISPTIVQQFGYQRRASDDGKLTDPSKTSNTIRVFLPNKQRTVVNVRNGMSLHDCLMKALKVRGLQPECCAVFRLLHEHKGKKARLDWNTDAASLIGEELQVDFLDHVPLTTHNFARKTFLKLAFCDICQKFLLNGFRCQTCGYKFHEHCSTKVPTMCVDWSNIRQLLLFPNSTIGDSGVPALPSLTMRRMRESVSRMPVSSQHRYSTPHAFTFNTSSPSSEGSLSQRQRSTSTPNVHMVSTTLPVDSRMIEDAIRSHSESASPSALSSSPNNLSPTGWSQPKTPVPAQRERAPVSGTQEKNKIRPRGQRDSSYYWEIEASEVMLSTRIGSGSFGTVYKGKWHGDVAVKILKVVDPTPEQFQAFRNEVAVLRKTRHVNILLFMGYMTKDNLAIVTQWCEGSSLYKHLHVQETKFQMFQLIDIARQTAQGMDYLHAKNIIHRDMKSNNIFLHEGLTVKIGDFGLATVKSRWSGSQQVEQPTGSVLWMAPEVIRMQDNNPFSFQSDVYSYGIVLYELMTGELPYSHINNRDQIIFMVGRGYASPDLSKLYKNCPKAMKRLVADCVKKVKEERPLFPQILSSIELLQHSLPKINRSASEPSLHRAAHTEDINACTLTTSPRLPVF

Cc1cccc(C)c1/C=C/n1cnc2c(Nc3ccc(P(C)(C)=O)cc3)nc(N3CCCC3)nc21
pIC50 [1]: 6.91 | pIC50 (K562): 7.05

CP(C)(=O)c1ccc(Nc2ncnc3c2ncn3/C=C/c2cccc3[nH]ncc23)cc1
pIC50 [1]: 6.07 | pIC50 (K562): 6.45

Cc1cccc(C)c1/C=C/n1cnc2c(Nc3ccc(P(C)(C)=O)cc3)nc(N3CCOCC3)nc21
pIC50 [1]: 7.68 | pIC50 [2]: > 9.64 | pIC50 [3]: 8.52

Cc1cccc(Cl)c1/C=C/n1cnc2c(Nc3ccc(P(C)(C)=O)cc3)ncnc21
bioavailability [4]: 17% | half-life [5]: 3.3 h | Vd [6]: 2.74 L/kg | pIC50 [1]: 6.70 | Cmax [7]: 1680 ng/mL | pIC50 (K562): 6.96 | Cmax [8]: 4590 ng/mL | half-life [9]: 2.74 h

CP(C)(=O)c1ccc(Nc2ncnc3c2ncn3/C=C/c2cccc3[nH]ccc23)cc1
pIC50 [1]: 5.81 | pIC50 (K562): 6.02

CCCP(=O)(CCC)c1ccc(Nc2ncnc3c2ncn3/C=C/c2c(C)cccc2C)cc1
bioavailability [4]: 0% | Vd [6]: 2.7 L/kg | pIC50 [1]: 6.54 | pIC50 (K562): 6.43 | Cmax [8]: 5140 ng/mL | half-life [9]: 1.2 h

Cc1cccc(C)c1/C=C/n1cnc2c(Nc3ccc(P(C)(C)=O)cc3)nc(N(C)C)nc21
pIC50 [1]: 6.57 | pIC50 (K562): 6.66

Cc1cccc(C)c1/C=C/n1cnc2c(Nc3ccc(P(C)(C)=O)cc3)nc(-n3ccnc3)nc21
pIC50 [2]: > 9.34 | pIC50 [3]: 8.79 | pIC50 (K562): 7.27

Cc1cccc(C)c1/C=C/n1cnc2c(Nc3ccc(P(C)(C)=O)cc3)nc(C(C)C)nc21
bioavailability [4]: 25% | half-life [5]: 5.1 h | Vd [6]: 5.4 L/kg | pIC50 [1]: 7.57 | Cmax [7]: 478 ng/mL | pIC50 (K562): 7.64 | Cmax [8]: 1220 ng/mL | half-life [9]: 7.5 h

Cc1cccc(C)c1/C=C/n1cnc2c(Nc3ccc(P(C)(C)=O)cc3)nc(C3CCCC3)nc21
pIC50 (K562): 6.65

COCCOc1nc(Nc2ccc(P(C)(C)=O)cc2)c2ncn(/C=C/c3c(C)cccc3C)c2n1
pIC50 [1]: 7.29 | pIC50 [2]: > 9.34 | pIC50 [3]: 8.80 | pIC50 (K562): 7.57

Cc1cccc(C)c1/C=C/n1cnc2c(Nc3ccc(P(C)(C)=O)cc3)nc(C3CCN(C)CC3)nc21
pIC50 [1]: 6.55 | pIC50 [2]: > 9.34 | pIC50 [3]: > 9.34 | pIC50 (K562): 7.55

CCCP(=O)(CCC)c1ccc(Nc2nc(C(C)C)nc3c2ncn3/C=C/c2ccccc2)cc1
pIC50 (K562): < 6.00

CCCP(=O)(CCC)c1ccc(Nc2nc(C(C)C)nc3c2ncn3/C=C\c2ccccc2)cc1
pIC50 (K562): < 6.00

Cc1cccc(C)c1/C=C/n1cnc2c(Nc3ccc(P(C)(C)=O)cc3)ncnc21
bioavailability [4]: 20% | half-life [5]: 5 h | pIC50 [10]: < 6.00 | pIC50 [11]: 7.68 | pIC50 [12]: < 6.00 | Vd [6]: 0.98 L/kg | pIC50 (Insulin receptor): < 6.00 | pIC50 [13]: 6.66 | pIC50 [14]: 6.38 | pIC50 [15]: < 6.00 | pIC50 [1]: 6.77 | Cmax [7]: 1280 ng/mL | pIC50 [16]: < 6.00 | pIC50 [2]: 8.08 | pIC50 (Ephrin type-B receptor 4): 7.52 | pIC50 [3]: 8.45 | pIC50 [17]: 6.82 | pIC50 [18]: 6.23 | pIC50 (K562): 6.96 | pIC50 (Ephrin type-B receptor 1): 8.22 | pIC50 [19]: 8.52 | Cmax [8]: 4320 ng/mL | half-life [9]: 3.93 h

COc1nc(Nc2ccc(P(C)(C)=O)cc2)c2ncn(/C=C/c3c(C)cccc3C)c2n1
pIC50 [1]: 7.49 | pIC50 [2]: > 9.34 | pIC50 [3]: 8.74 | pIC50 (K562): 7.28

Cc1cccc(C)c1/C=C/n1cnc2c(Nc3ccc(P(C)(C)=O)cc3)nc(N3CCN(C)CC3)nc21
pIC50 [1]: 7.13 | pIC50 [2]: > 9.64 | pIC50 [3]: 8.17 | pIC50 (K562): 7.63

CP(C)(=O)c1ccc(Nc2ncnc3c2ncn3/C=C/c2ccccc2Cl)cc1
pIC50 [1]: 5.70 | pIC50 (K562): 5.86

Cc1ccc2[nH]ncc2c1/C=C/n1cnc2c(Nc3ccc(P(C)(C)=O)cc3)ncnc21
bioavailability [4]: 0% | Vd [6]: 1.9 L/kg | pIC50 [1]: 7.43 | Cmax [7]: 22 ng/mL | pIC50 [2]: > 9.34 | pIC50 [3]: > 9.34 | pIC50 (K562): 7.98 | Cmax [8]: 7080 ng/mL | half-life [9]: 1.2 h

Cc1cccc(C)c1/C=C/n1cnc2c(Nc3ccc(P(C)(C)=O)cc3)nc(OC(C)C)nc21
pIC50 [1]: 7.46 | pIC50 [2]: > 9.34 | pIC50 [3]: 8.14 | pIC50 (K562): 7.39

Cc1cccc(C)c1/C=C/n1cnc2c(Nc3ccc(P(C)(C)=O)cc3)nc(CCC#N)nc21
pIC50 [1]: 7.41 | pIC50 [2]: > 9.34 | pIC50 [3]: > 9.34 | pIC50 (K562): 7.80

Cc1cccc(C)c1/C=C/n1cnc2c(Nc3ccc(P(C)(C)=O)cc3)nc(Oc3cccnc3)nc21
pIC50 [1]: 7.45 | pIC50 [2]: > 9.34 | pIC50 [3]: 9.30 | pIC50 (K562): 8.07

CCCP(=O)(CCC)c1ccc(Nc2nc(C(C)C)nc3c2ncn3/C=C\c2c(C)cccc2C)cc1
pIC50 (K562): 6.02

CCCP(=O)(CCC)c1ccc(Nc2nc(C(C)C)nc3c2ncn3/C=C/c2c(C)cccc2C)cc1
pIC50 [1]: 6.91 | pIC50 (K562): 6.94
